According to US5225417A, “Opioid agonist compounds” (priority 1992, dated 1993):
Structures can show the parent of a compound that is named as a salt.

Columns and labels:
[1] = system: mice or rats; conditions: background statement; cited from earlier work
[2] = system: mice or rats; experiment: Tail Flick Assay; assay type: in vivo; conditions: for Tail flick activity, intracerebroventricular / active dose in tail flick, intracerebroventricularly: intracerebroventricular
Source text: The "Tail Flick Assay" uses thermal pain of transient duration, and is a test in which the pain threshold of the mice or rats being analyzed has not been altered. It is useful for evaluating the ability of a compound or drug to increase the animal's pain threshold (i.e. prolong response latencies), rather than to restore normal thresholds.
The heat-induced response to the Tail Flick Assay is a reflex reaction mediated at the level of the spinal cord.
Opiate compounds having clinical efficacy as analgesics generally increase tail flick latencies. Thus, morphine and codeine are generally determined to be active in this test.
The Tail Flick Assay was performed generally in the manner described by G. Woolfe et al., "The Evaluation of the Analgesic Action of Pethidine Hydrochloride (Demerol)," J. Pharmacol. Exp. Ther., 80, 300, (1944), F. D'Amour et al., "A Method for Determining Loss of Pain Sensation," J. Pharmacol. Exp. Ther., 72, 74, 300-307 (1941), and E. Drower et al., "The Antinociceptive Effects of Prostaglandin Antagonists in the Rat," European Journal of Pharmacology, 133, 249-256 (1987).
Male Charles River albino mice and male Charles River Sprague-Dawley rats weighing 20 to 30 g and 200 to 250 g, respectively, was employed in this assay.
Tail flick response latencies (defined as the time that elapsed between the onset of a high intensity beam of light and the reflex removal of the mouse or rat's tail) was measured before (baseline) and again at fixed intervals after subcutaneous or intracerebro-ventricular administration of one of the compounds of the invention, or after the administration of saline (controls). The cut-off latencies established to prevent tissue damage in the animals are 12 seconds or 14 seconds in the mouse and rat, respectively, in the Tail Flick Assay. The significance of any increase in tail flick response latency is determined using analyses of variance.
One way analyses of variance were used to determine the significance of the effect of the compounds of the invention on response latencies.
"Activity" or "Inactivity" was determined at a particular concentration of the compound by a significant increase in tail flick latency above normal latencies.
The numbers in parentheses are calculated ED50 values.

[3] = target: μ opioid receptor (Rattus norvegicus, UniProt P33535); experiment: Opiate Binding Assay, μ receptor (3[H]-DAMGO displacement)
Sequence of μ opioid receptor (P33535 whole entry): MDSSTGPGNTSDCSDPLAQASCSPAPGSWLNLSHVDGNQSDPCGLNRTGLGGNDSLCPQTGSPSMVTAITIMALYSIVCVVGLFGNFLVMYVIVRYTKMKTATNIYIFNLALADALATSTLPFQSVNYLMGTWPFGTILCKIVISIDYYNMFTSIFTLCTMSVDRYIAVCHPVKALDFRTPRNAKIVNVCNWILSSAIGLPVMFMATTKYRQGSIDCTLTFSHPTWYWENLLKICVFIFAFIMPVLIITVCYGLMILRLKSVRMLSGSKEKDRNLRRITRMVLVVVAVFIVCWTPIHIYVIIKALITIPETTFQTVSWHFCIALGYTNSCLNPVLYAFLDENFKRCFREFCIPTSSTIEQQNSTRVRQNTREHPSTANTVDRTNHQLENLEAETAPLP

[4] = target: δ opioid receptor (Rattus norvegicus, UniProt P33533); experiment: Opiate Binding Assay, δ receptor (3[H]-DSLET displacement)
Sequence of δ opioid receptor (P33533 whole entry): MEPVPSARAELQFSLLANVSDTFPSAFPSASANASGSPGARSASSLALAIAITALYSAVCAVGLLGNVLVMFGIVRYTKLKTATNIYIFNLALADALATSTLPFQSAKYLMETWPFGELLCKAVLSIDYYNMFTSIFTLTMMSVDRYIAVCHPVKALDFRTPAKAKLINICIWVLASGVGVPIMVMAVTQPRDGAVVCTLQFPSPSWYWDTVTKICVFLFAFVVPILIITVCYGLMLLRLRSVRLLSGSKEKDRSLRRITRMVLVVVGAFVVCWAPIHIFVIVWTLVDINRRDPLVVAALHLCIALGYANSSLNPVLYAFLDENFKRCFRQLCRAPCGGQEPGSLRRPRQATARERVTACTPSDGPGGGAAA

Row | SMILES | activity in tail flick test (general knowledge) [1] | Tail flick activity, intracerebroventricular [2] | active dose in tail flick, intracerebroventricularly [2] | Tail flick activity, subcutaneous (active at) [2] | IC50 [4] | further results
1 | CC(=O)Oc1ccccc1C(=O)O [aspirin] | little activity |  |  |  |  | 
2 | CO[C@@]12Cc3c(oc4ccccc34)[C@@H]3Oc4c(O)ccc5c4[C@@]31CCN(C)[C@@H]2C5 (relative stereo) [Example IX, 6,7,8,8a,9,14b-hexahydro-8aβ-methoxy-7-methyl-4,8(R,α)-methano-4bS*-5H-bisbenzofuro [3,2-e:2',3'-g]isoquinolin-1-ol, monohydrochloride] |  | 10.5 nmol | ca. 10 nmoles | > 30 mpk | 0.001 µM | IC50 [3]: 0.43 µM; Mean IC50 μ/δ Ratio ([4]; ratio of mean IC50 values for μ and δ opioid receptors): 430
3 | Oc1ccc2c3c1O[C@H]1c4oc5ccccc5c4C[C@@]4(O)[C@@H](C2)N(Cc2ncc[nH]2)CC[C@]314 (relative stereo) [Example XV, 5,6,7,8,14,14bβ-Hexahydro-(1H-imidazol-2-ylmethyl)-4,8(R,α)-methano-4bS*-benzofuro[2,3-a]pyrido [4,3-b]carbazole-1,8aβ(9H)-diol, hydrochloride] |  | ~ 10 nmoles | ca. 10 nmoles | inactive | 0.0792 µM | Mean IC50 Value, μ ([3]; rat forebrain membranes, 3[H]-DAMGO 2.0 nM, 37° C., pH 7.4): inactive
4 | COc1ccc2c3c1O[C@H]1[C@@H](O)C=C[C@H]4[C@@H](C2)N(C)CC[C@@]341 [codeine] | active |  |  |  |  | 
5 | CN1CC[C@]23c4c5ccc(O)c4O[C@H]2[C@@H](O)C=C[C@H]3[C@H]1C5 [morphine] | active |  |  |  |  | 
6 | Cc1cc(CC(=O)O)n(C)c1C(=O)c1ccc(Cl)cc1 [Zomax] | little activity |  |  |  |  | 
